Data as given in US9951292B2, “Grease composition” (TOTAL MARKETING SERVICES, priority 2011, dated 2018).

Tests used:
algae and daphnia = assay: Aquatic toxicity to algae and daphnia according to standards OECD 201 and 202; assay type: in vivo
Source text: Preferably, the grease compositions according to the invention contain additives which are not hazardous to the environment and human health. Preferably, the grease compositions according to the invention are free from organic halogenated compounds, nitrite type compounds, metals or metallic compounds other than sodium, potassium, magnesium, calcium, lithium and/or aluminium. Preferably, the grease compositions according to the invention are not toxic to the aquatic environment. In particular the grease compositions according to the invention have an aquatic toxicity to algae, daphnia and fish of at least 1000 mg/l according to standards OECD 201, 202 and 203.
Similarly, the main constituents of the grease, i.e. those present at more than 5% by mass with respect to the total mass of the grease composition, such as the base oil and the soap, have an aquatic toxicity to algae and daphnia of at least 100 mg/l according to standards OECD 201 and 202.
Similarly, when a constituent has an aquatic toxicity to algae and daphnia of at least 100 mg/l according to standards OECD 201 and 202 (category D), said constituent can be present in the grease at any concentration. The grease compositions according to the invention have a concentration by mass of constituents having an aquatic toxicity to algae and daphnia comprised between 10 mg/l and 100 mg/l according to standards OECD 201 and 202 (category E), less than or equal to 25%. The grease compositions according to the invention have a concentration by mass of constituents having an aquatic toxicity to algae and daphnia comprised between 1 mg/l and 10 mg/l according to standards OECD 201 and 202 (category F), less than or equal to 2%, preferably less than or equal to 1%. This only concerns the constituents of the grease the concentration by mass in the grease of which is greater than or equal to 0.1%.

[1] = Biodegradability according to standard OECD 301B
Source text: This only concerns the constituents of the grease the concentration by mass in the grease of which is greater than or equal to 0.1%.

| Molecule | aquatic toxicity to algae and daphnia (algae and daphnia; in vivo) | aquatic toxicity to algae and daphnia (algae and daphnia; OECD 201 and 202) | aquatic toxicity to algae and daphnia, category (algae and daphnia; OECD 201 and 202) | biodegradability [1] |
| --- | --- | --- | --- | --- |
| CCCCCCCCCCCCCCCCCCOC(=O)CCc1cc(C(C)(C)C)c(O)c(C(C)(C)C)c1 [antioxidant 2, Octadecyl 3-(3,5-ditertiobutyl-4-hydroxyphenyl) propanoate] | over 100 mg/l | – | – | – |
| CCCCCCC(O)CCCCCCCCCCC(=O)[O-].[Li+] (centres unmarked) [lithium 12-hydroxystearate] | – | over 100 mg/l | D (aquatic toxicity to algae and daphnia of at least 100 mg/l according to standards OECD 201 and 202 (category D)) | – |
| Tolyltriazole [corrosion inhibitor 2] | 1 to 10 mg/L | – | – | 4% |
